The values below come from PMC3368886, “ATPase Cycle and DNA Unwinding Kinetics of RecG Helicase” (PLoS ONE, 2012).

Assay [1] has as its target T1, RecG with three-strand DNA junction (A40:B40:C19) (Thermotoga maritima, UniProt Q9WY48).
T1 construct: made in house
T1 sequence (Q9WY48 1-780): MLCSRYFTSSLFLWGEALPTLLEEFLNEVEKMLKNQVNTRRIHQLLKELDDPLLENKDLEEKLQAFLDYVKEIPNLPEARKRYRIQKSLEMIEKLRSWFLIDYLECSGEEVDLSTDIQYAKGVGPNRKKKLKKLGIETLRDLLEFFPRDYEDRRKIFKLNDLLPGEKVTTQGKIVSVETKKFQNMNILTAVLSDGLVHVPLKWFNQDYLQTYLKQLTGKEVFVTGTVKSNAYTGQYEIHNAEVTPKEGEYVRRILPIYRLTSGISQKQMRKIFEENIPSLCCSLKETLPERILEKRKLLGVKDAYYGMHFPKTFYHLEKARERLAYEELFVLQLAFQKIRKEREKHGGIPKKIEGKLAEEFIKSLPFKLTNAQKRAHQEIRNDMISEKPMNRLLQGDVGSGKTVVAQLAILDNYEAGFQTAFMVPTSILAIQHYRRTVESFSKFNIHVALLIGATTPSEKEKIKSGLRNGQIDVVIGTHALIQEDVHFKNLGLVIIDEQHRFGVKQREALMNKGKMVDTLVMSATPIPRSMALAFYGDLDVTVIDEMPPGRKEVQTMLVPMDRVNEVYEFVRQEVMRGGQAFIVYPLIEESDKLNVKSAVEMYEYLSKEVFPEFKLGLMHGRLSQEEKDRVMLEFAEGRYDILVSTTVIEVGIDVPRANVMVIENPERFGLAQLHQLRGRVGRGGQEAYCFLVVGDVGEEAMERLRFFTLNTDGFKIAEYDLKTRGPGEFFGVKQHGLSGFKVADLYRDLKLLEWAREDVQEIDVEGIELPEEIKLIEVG
Put plainly: Single turnover ATPase measurements with three-strand junction. The assay is classed as biochemical. Here is the method: Therefore, mantATP binding, quench-flow and phosphate measurements were carried out using with sub-stoichiometric mantATP, but with a non-complementary three-strand DNA junction (A40:B40:C19) to form a lagging strand duplex (as defined in Figure 1A). With excess mantATP, the duplex arm of this junction was unwound by the helicase, leaving RecG bound to the two-strand junction with the third strand displaced. With sub-stoichiometric mantATP, there was only a single turnover, so only partial unwinding of this DNA substrate occurred. The kinetics (Figure S2) were similar to those with the two-strand junction with mantATP binding at 4.2 (±0.4) s^−1, hydrolysis at 0.39 (±0.1) s^−1 and fast Pi release.
Supplementary file pone.0038270.s002.tif: Figure S2 Kinetic measurements of mantATP with excess of RecG and a Three-strand DNA Junction. The concentrations for all experiments were 0.5 µM mantATP, 2.5 µM RecG, 5 µM DNA Junction (A40:B40:C19) and 10 µM MDCC-PBP (for Pi measurement). All measurements were carried out under the conditions of Figure 4. Time course of mant fluorescence (continuous line), mantADP formation (circles) and Pi release (dashed line). […] (TIF) Click here for additional data file.

A further assay deals with T2, RecG (Thermotoga maritima, UniProt Q9WY48).
T2 construct: made in house
T2 sequence (Q9WY48 1-780): T1 sequence (Q9WY48 1-780)
The assay can be described thus: Double-mix stopped-flow: RecG⋅mantATP then mixed with DNA. Particulars: RecG + mantATP aged 1 s, then mixed with DNA junction (A40:B40). The assay is classed as biochemical. Here is the method:
Figure 4 Kinetic measurement of mantATP with excess of RecG and DNA: binding, hydrolysis and Pi release. The concentrations for all experiments were 0.5 µM mantATP, 2.5 µM RecG, 5 µM DNA (A40:B40) and 10 µM MDCC-PBP (for Pi measurement). All measurements were carried out at 20°C in the buffer described in Materials and Methods. (A) Time course of mant fluorescence (solid line), mantADP formation (circles) and Pi release (dashed line), measured as described in materials and methods. […] (B) Simulation of these time courses, based upon a global model for a single turnover of mantATP as described in the text. (C) The time course of mant fluorescence upon mixing 0.5 µM mantATP and 2.5 µM RecG with 5 µM DNA junction (A40:B40) after a first mixing of 5 µM RecG and 1 µM mantATP and aging for 1 s.
As the cleavage step is so slow in the absence of DNA, a double-mix, stopped-flow experiment was performed in order to see if the biphasic increase in mant fluorescence could be separated into the individual processes of mantATP binding and hydrolysis. An excess of RecG was mixed with mantATP and this mix aged for 1 s to allow binding but not hydrolysis. This solution was then mixed with DNA. […] This rate was similar to that of the slower phase, measured above, consistent with this phase being due to DNA-induced hydrolysis.

Setting [2] is: three-strand junction A40:B40:C19, sub-stoichiometric mantATP.

As for `CNc1ccccc1C(=O)O[C@H]1[C@@H](O)[C@H](n2cnc3c(N)ncnc32)O[C@@H]1COP(=O)(O)OP(=O)(O)OP(=O)(O)O` [mantATP, 2′(3′)-O-(N-methylanthraniloyl)ATP], the Pi release entry in assay [1] (three-strand junction A40:B40:C19, result in words) is reported as “fast”. In assay [1] (setting [2]), the hydrolysis rate is 0.39 (±0.1) s^−1 and the mantATP binding rate was 4.2 (±0.4) s^−1. Besides, at RecG, the “rate constant of single exponential increase in mant fluorescence” value is on record as 0.3 (±0.04) s^−1.
